Assay results: patent publication EP2424865B1 (Boehringer Ingelheim International GmbH, priority 2009, dated 2010)
Like-named read-outs stand apart in the source and are kept apart here.

What was measured:
[1] = target: human recombinant cytochrome P450 2C19 (Homo sapiens, UniProt P33261); assay: Biological Test Example 8: CYP2C19 inhibition ([N-methyl-14C]-Diazepam N-demethylation)
11β-HSD1 [2] = target: T1, 11β-HSD1 (Homo sapiens, UniProt P28845); assay: biochemical; conditions: read-out: Average % control inhibition at 100 nM
T1 sequence (P28845 whole entry): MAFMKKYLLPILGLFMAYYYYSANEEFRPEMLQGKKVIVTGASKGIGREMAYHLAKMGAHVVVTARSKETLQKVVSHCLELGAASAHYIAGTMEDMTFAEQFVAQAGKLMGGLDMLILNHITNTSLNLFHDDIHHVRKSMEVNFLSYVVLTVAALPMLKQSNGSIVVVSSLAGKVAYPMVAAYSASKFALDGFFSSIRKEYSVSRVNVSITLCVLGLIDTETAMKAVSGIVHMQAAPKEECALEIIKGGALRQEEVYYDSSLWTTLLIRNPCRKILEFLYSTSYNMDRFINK

[3] = target: human recombinant cytochrome P450 2C9 (Homo sapiens, UniProt P11712); assay: Biological Test Example 7: CYP2C9 inhibition ([O-methyl-14C]-Naproxen O-demethylation)
human recombinant cytochrome P450 2C9, sequence (P11712 whole entry): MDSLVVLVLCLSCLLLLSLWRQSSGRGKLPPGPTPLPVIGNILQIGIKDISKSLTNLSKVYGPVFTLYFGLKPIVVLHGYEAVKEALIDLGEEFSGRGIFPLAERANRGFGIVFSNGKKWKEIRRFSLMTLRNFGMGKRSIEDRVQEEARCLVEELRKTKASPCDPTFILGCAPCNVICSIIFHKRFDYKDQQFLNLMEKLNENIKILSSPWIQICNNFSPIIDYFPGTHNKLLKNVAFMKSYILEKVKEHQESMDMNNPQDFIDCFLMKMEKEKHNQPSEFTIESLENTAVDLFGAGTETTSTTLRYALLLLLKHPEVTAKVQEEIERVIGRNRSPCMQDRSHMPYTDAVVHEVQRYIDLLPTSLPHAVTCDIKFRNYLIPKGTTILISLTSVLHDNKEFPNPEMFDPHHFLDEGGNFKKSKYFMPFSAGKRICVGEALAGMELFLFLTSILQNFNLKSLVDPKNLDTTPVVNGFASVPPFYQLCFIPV

[4] = target: human recombinant cytochrome P450 3A4 (Homo sapiens, UniProt P08684)
human recombinant cytochrome P450 3A4, sequence (P08684 whole entry): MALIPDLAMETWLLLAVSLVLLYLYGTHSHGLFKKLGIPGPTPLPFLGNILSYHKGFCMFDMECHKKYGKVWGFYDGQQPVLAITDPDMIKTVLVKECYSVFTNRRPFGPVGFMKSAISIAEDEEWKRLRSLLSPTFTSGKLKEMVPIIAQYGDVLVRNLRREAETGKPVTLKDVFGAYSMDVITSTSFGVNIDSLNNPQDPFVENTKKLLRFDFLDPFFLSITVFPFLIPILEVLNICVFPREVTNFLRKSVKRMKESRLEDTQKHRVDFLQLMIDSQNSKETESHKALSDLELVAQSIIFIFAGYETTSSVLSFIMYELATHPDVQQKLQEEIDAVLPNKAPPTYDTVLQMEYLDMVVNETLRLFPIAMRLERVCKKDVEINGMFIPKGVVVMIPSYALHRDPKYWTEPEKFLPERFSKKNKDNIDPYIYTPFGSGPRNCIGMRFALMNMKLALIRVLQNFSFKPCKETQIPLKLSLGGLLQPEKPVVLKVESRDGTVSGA

CYP2C9 = CYP2C9 (Homo sapiens, UniProt P11712); assay: Biological Test Example 9: CYP2C9 inhibition (Invitrogen kit, fluorogenic substrate OOMR); type: in vitro ADME
CYP2C9, sequence (P11712 whole entry): as the sequence (P11712 whole entry) above

Plasma protein = assay: Biological Test Example 5: fraction unbound in human plasma (equilibrium dialysis); type: in vitro ADME
11β-HSD1 [5] = target: T1, 11β-HSD1
[6] = Invitrogen kit, fluorogenic substrate OOMR
[7] = read-out: Biological Test Example 1 IC50, Examples
[8] = read-out: Biological Test Example 1 IC50 Range, microsomal preparation of human 11β-HSD1, SPA

human recombinant cytochrome P450 2C19, sequence (P33261 whole entry): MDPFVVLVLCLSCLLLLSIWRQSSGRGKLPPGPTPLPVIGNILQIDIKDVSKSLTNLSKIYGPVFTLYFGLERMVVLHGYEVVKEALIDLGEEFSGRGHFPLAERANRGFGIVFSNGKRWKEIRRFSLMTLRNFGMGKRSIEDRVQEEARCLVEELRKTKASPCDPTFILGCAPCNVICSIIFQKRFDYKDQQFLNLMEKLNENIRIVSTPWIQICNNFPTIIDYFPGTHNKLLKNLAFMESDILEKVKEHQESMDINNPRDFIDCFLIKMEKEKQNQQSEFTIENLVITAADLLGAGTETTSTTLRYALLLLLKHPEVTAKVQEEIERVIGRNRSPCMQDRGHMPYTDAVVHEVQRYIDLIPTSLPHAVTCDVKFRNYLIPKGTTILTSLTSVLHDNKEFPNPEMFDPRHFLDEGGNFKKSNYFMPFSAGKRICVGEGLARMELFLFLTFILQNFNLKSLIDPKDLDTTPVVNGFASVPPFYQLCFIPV

In the case of `C[C@@H](c1ccc(-c2ccn(CC(C)(C)O)c(=O)c2)cc1)N1CC[C@](CC(C)(C)O)(c2ccccc2)OC1=O` [Example 80, (S)-6-(2-Hydroxy-2-methyl-propyl)-3-((S)-1-{4-[1-(2-hydroxy-2-methylpropyl)-2-oxo-1,2-dihydro-pyridin-4-yl]-phenyl}-ethyl)-6-phenyl-[1,3]oxazinan-2-one], the IC50 [1] is reported as 38 µM and the inhibition at 0.1 µM (11β-HSD1 [2]) is reported as 37%.

Work on `C[C@@H](c1ccc(-c2ccn(C)c(=O)c2)cc1)N1CC[C@](CC(C)(C)C#N)(c2ccccc2)OC1=O` [Example 50, 2,2-dimethyl-3-((R)-3-((S)-1-(4-(1-methyl-2-oxo-1,2-dihydropyridin-4-yl)phenyl)ethyl)-2-oxo-6-phenyl-1,3-oxazinan-6-yl)propanenitrile] yielded an IC50 [3] of 11 µM, an IC50 [1] of 27 µM and an IC50 [4] of 14 µM. The IC50 (CYP2C9) was 5.1 µM.

Work on `C[C@@H](c1ccc(-c2ccc(=O)n(C)c2)cc1)N1CC[C@](CCCO)(c2ccc(F)cc2)OC1=O` [Example 33, (R)-6-(4-fluorophenyl)-6-(3-hydroxypropyl)-3-((S)-1-(4-(1-methyl-6-oxo-1,6-dihydropyridin-3-yl)phenyl)ethyl)-1,3-oxazinan-2-one] yielded an IC50 [3] of 43 µM, an IC50 [1] of 17 µM and an IC50 [4] of over 50 µM. For the same molecule, the IC50 (CYP2C9; [6]) was 24.6 µM.

In the case of `C[C@@H](c1ccc(-c2ccc(=O)n(C)c2)cc1)N1CC[C@](CC(C)(C)N(C)S(C)(=O)=O)(c2ccccc2)OC1=O` [Example 12, N-methyl-N-(2-methyl-1-((S)-3-((S)-1-(4-(1-methyl-6-oxo-1,6-dihydropyridin-3-yl)phenyl)ethyl)-2-oxo-6-phenyl-1,3-oxazinan-6-yl)propan-2-yl)methanesulfonamide], the “Biological Test Example 5 (%)” value (Plasma protein; Comparator Compounds) is reported as 0.4% and the IC50 (CYP2C9; [6]) is reported as 12.1 µM.

With `CC[C@@H](c1ccc(-c2ccc(=O)n(C)c2)cc1)N1CC[C@](CCO)(c2ccccc2)OC1=O` [Example 40, (S)-6-(2-hydroxyethyl)-3-((S)-1-(4-(1-methyl-6-oxo-1,6-dihydropyridin-3-yl)phenyl)propyl)-6-phenyl-1,3-oxazinan-2-one] the IC50 [1] was 13 µM and the IC50 (CYP2C9) was 27.9 µM.

In the case of `C[C@@H](c1ccc(-c2ccc(=O)n(C)c2)cc1)N1CC[C@](CC(C)(C)C#N)(c2ccccc2)OC1=O` [Example 49, 2,2-dimethyl-3-((R)-3-((S)-1-(4-(1-methyl-6-oxo-1,6-dihydropyridin-3-yl)phenyl)ethyl)-2-oxo-6-phenyl-1,3-oxazinan-6-yl)propanenitrile], the IC50 [3] is reported as 29 µM, the IC50 [1] is reported as 46 µM and the IC50 [4] is reported as 32 µM. The IC50 (CYP2C9; [6]) was 14.8 µM.

With `C[C@@H](c1ccc(-c2ccn(C3CC3)c(=O)c2)cc1)N1CCC(CC(C)(C)O)(C2CCOCC2)OC1=O` (single isomer, unassigned; isomer 2) [91 Isomer 2] the IC50 (11β-HSD1 [5]; [7]) was over 0.1 µM.

With `C[C@@H](c1ccc(-c2ccn(C3CC3)c(=O)c2)cc1)N1CCC(CC(C)(C)C)(CC(C)(C)O)OC1=O` (single isomer, unassigned) [Example 94 Isomer 2] the “Biological Test Example 1 Average % inhibition at 100 nM” value (11β-HSD1 [5]; listed as EXAMPLE 94 Isomer 2, 0.1 µM) was 8.2% and the IC50 (11β-HSD1 [5]; [8]) was over 0.1 µM.

Molecule `C[C@@H](c1ccc(-c2ccn(C3CC3)c(=O)c2)cc1)N1CCC(CC(C)(C)O)(C2CCOCC2)OC1=O` (single isomer, unassigned; isomer 1) [91 Isomer 1] has an IC50 (11β-HSD1 [5]; [7]) of over 0.1 µM.

Work on `C[C@@H](c1ccc(-c2ccc(=O)[nH]c2)cc1)N1CC[C@](CCCO)(c2ccccc2)OC1=O` [Example 29, (R)-6-(3-hydroxypropyl)-3-((S)-1-(4-(6-oxo-1,6-dihydropyridin-3-yl)phenyl)ethyl)-6-phenyl-1,3-oxazinan-2-one] yielded an IC50 (CYP2C9; [6]) of 7.5 µM.

`C[C@@H](c1ccc(-c2ccn(C3CC3)c(=O)c2)cc1)N1CCC(CC(C)(C)O)(C2CCOCC2)OC1=O` (single isomer, unassigned) [Example 91 Isomer 2] was tested, and the “Biological Test Example 1 Average % inhibition at 100 nM” value (11β-HSD1 [5]; 0.1 µM) was 13.8% and the IC50 (11β-HSD1 [5]; [8]) was over 0.1 µM.

Molecule `CC[C@@H](c1ccc(-c2ccn(C)c(=O)c2)cc1)N1CC[C@](CC(C)(C)O)(c2ccccc2)OC1=O` [Example 55, (S)-6-(2-hydroxy-2-methylpropyl)-3-((S)-1-(4-(1-methyl-2-oxo-1,2-dihydropyridin-4-yl)phenyl)propyl)-6-phenyl-1,3-oxazinan-2-one] has an IC50 [3] of 29 µM, an IC50 [1] of 13 µM and an IC50 [4] of over 50 µM. The “Biological Test Example 5 (%)” value (Plasma protein; Examples) was 7.1% and the IC50 (CYP2C9) was 24.3 µM.

`C[C@@H](c1ccc(-c2ccc(=O)n(CC3CC3)c2)cc1)N1CC[C@](CC(C)(C)O)(c2ccccc2)OC1=O` [Example 76, 3-{(S)1-[4-(1-Cyclopropylmethyl-6-oxo-1,6-dihydro-pyridin-3-yl)-phenyl]-ethyt}-(S)-6-(2-hydroxy-2-methyl-propyl)-6-phenyl-[1,3]oxazinan-2-one] showed an IC50 [3] of 4 µM, an IC50 [1] of 9 µM and an IC50 [4] of 10 µM. For the same molecule, the inhibition at 0.1 µM (11β-HSD1 [2]) was 17%.

In the case of `C[C@@H](c1ccc(-c2ccc(=O)n(C)c2)cc1)N1CC[C@](CC(C)(C)O)(c2ccc(F)cc2)OC1=O` [Example 32, (S)-6-(4-fluorophenyl)-6-(2-hydroxy-2-methylpropyl)3-((S)-1-(4-(1-methyl-6-oxo-1,6-dihydropyridin-3-yl)phenyl)ethyl)-1,3-oxazinan-2-one], the “Biological Test Example 5 (%)” value (Plasma protein; Examples) is reported as 12.3% and the IC50 (CYP2C9; [6]) is reported as 28.7 µM.

`C[C@@H](c1ccc(-c2ccn(CC(F)(F)F)c(=O)c2)cc1)N1CC[C@](CC(C)(C)O)(c2ccccc2)OC1=O` [Example 66, (S)-6-(2-hydroxy-2-methylpropyl)-3-((S)-1-(4-(2-oxo-1-(2,2,2-trifluoroethyl)-1,2-dihydropyridin-4-yl)phenyl)ethyl)-6-phenyl-1,3-oxazinan-2-one] was tested, and the IC50 [3] was 10 µM, the IC50 [1] was 11 µM and the IC50 [4] was 18 µM. The “Biological Test Example 5 (%)” value (Plasma protein; Examples) was 5.5%.

Work on `C[C@@H](c1ccc(-c2ccn(C3CC3)c(=O)c2)cc1)N1CCC(CC(C)(C)C)(CC(C)(C)O)OC1=O` (single isomer, unassigned; isomer 1) [94 Isomer 1] yielded an IC50 (11β-HSD1 [5]; [7]) of over 0.1 µM.

In the case of `CCn1cc(-c2ccc([C@H](C)N3CC[C@](CCCO)(c4ccccc4)OC3=O)cc2)ccc1=O` [Example 43, (R)-3-((S)-1-(4-(1-ethyl-6-oxo-1,6-dihydropyridin-3-yl)phenyl)ethyl)-6-(3-hydroxypropyl)-6-phenyl-1,3-oxazinan-2-one], the IC50 (CYP2C9) is reported as 10.5 µM.

`C[C@@H](c1ccc(-c2ccn(C)c(=O)c2)cc1)N1CC[C@](CCCO)(c2ccccc2)OC1=O` [Example 47, (R)-6-(3-hydroxypropyl)-3-((S)-1-(4-(1-methyl-2-oxo-1,2-dihydropyridin-4-yl)phenyl)ethyl)-6-phenyl-1,3-oxazinan-2-one] was tested, and the IC50 (CYP2C9; [6]) was 12.1 µM.

With `C[C@@H](c1ccc(-c2ccc(=O)n(C)c2)cc1)N1CC[C@](CC(C)(C)O)(c2ccccc2)OC1=O` [Example 37, (S)-6-(2-hydroxy-2-methylpropyl)-3-((S)-1-(4-(1-methyl-6-oxo-1,6-dihydropyridin-3-yl)phenyl)ethyl)-6-phenyl-1,3-oxazinan-2-one] the IC50 [3] was 43 µM, the IC50 [4] was 48 µM and the “Biological Test Example 5 (%)” value (Plasma protein; Examples) was 14.6%. For the same molecule, the IC50 (CYP2C9) was 24.8 µM.

Molecule `C[C@@H](c1ccc(-c2ccn(C3CC3)c(=O)c2)cc1)N1CCC(CC(C)(C)O)(C2CC(F)(F)C2)OC1=O` (single isomer, unassigned; isomer 1) [95 Isomer 1] has an IC50 (11β-HSD1 [5]; [7]) of over 0.1 µM.

`C[C@@H](c1ccc(-c2ccn(CC(C)(C)CO)c(=O)c2)cc1)N1CC[C@](CC(C)(C)O)(c2ccccc2)OC1=O` [Example 90, 3-((S)-1-{4-[1-(3-Hydroxy-2,2-dimethyl-propyl)-2-oxo-1,2-dihydro-pyridin-4-yl]-phenyl}-ethyl)-(S)-6-(2-hydroxy-2-methyl-propyl)-6-phenyl-[1,3]oxazinan-2-one] gave an inhibition at 0.1 µM (11β-HSD1 [2]) of 4%.

`C[C@@H](c1ccc(-c2ccc(=O)[nH]c2)cc1)N1CC[C@](CC(C)(C)O)(c2ccccc2)OC1=O` [Example 1, (S)-6-(2-hydroxy-2-methytpropyl)-3-((S)-1-(4-(6-oxo-1,6-dihydropyridin-3-yl)phenyl)ethyl)-6-phenyl-1,3-oxazinan-2-one] showed an IC50 (CYP2C9; read-out: Biological Test Example 9 CYP2C9 IC50, comparator compounds, Invitrogen kit, fluorogenic substrate OOMR) of 27 µM.

In the case of `C[C@@H](c1ccc(-c2ccn(C3CC3)c(=O)c2)cc1)N1CCC(CC(C)(C)O)(C2CC(F)(F)C2)OC1=O` (single isomer, unassigned) [Example 95 Isomer 2], the “Biological Test Example 1 Average % inhibition at 100 nM” value (11β-HSD1 [5]; 0.1 µM) is reported as 8.0% and the IC50 (11β-HSD1 [5]; [8]) is reported as over 0.1 µM.

With `Cc1cc(-c2ccn(C3CC3)c(=O)c2)cc(C)c1CN1CCC(CC(C)(C)O)(c2ccccc2)OC1=O` (stereo not drawn) [Example 98] the inhibition at 0.1 µM (11β-HSD1 [2]) was 67%.

Molecule `C[C@@H](c1ccc(-c2cc(=O)n(C)cc2F)cc1)N1CC[C@](CC(C)(C)O)(c2ccccc2)OC1=O` [Example 79, 3-{(S)-1-[4-(5-Fluoro-1-methyl-2-oxo-1,2-dihydro-pyridin-4-yl)-phenyl]-ethyl}-(S)-6-(2-hydroxy-2-methyl-propyl)-6-phenyl-[1,3]oxazinan-2-one] has an inhibition at 0.1 µM (11β-HSD1 [2]) of 15%.
